Test system: RSV Long strain
Assay: Viral cytopathic effect (CPE) assay, anti-RSV activity
Format: cell-based, Respiratory Syncytial Virus
Settings: human respiratory syncytial virus, 144 h, RSV Long strain (ATCC); cell viability after 6 days, Cell Counting kit-8
Method in brief: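 EC50 was derived from CCK-8 viability at 450/630 nm measured 6 days post-infection. Infection used enough RSV Long strain for approximately 80–90% cytopathic effect, in the presence of half-log serially diluted compound. Cells were plated the day before at 6×10^3 per well in DMEM/10% FBS.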

Row | SMILES | EC50 [µM]
1 | NCCCNc1cc(N2CCS(=O)(=O)c3ccccc3C2)nc2ccc(Oc3ccccn3)cc12 [Example 31, N-[2-(1,1-Dioxido-2,3-dihydro-1,4-benzothiazepin-4(5H)-yl)-6-(pyridin-2-yloxy)quinolin-4-yl]propane-1,3-diamine] | 0.702
2 | Cc1ccc2nc(N3CCS(=O)(=O)c4ccccc4C3)cc(NCC(O)CO)c2c1 (stereo not drawn) [Example 32-1, 3-{[2-(1,1-Dioxido-2,3-dihydro-1,4-benzothiazepin-4(5H)-yl)-6-methylquinolin-4-yl]amino}propane-1,2-diol] | 0.019
3 | O=S1(=O)CCN(c2cc(NCC(O)CO)c3cc(Cl)ccc3n2)Cc2ccccc21 (stereo not drawn) [Example 32-2, 3-{[6-Chloro-2-(1,1-dioxido-2,3-dihydro-1,4-benzothiazepin-4(5H)-yl)quinolin-4-yl]amino}propane-1,2-diol] | 2.45
4 | Cc1ccc2nc(N3CCS(=O)(=O)c4cc(Cl)ccc4C3)cc(NCC(O)CO)c2c1 (stereo not drawn) [Example 32-3, 3-{[2-(8-Chloro-1,1-dioxido-2,3-dihydro-1,4-benzothiazepin-4(5H)-yl)-6-methylquinolin-4-yl]amino}propane-1,2-diol] | 1.99
5 | Cc1ccc2nc(N3CC[S+]([O-])c4ccccc4C3)cc(NCC(O)CO)c2c1 (stereo not drawn) [Example 32-4, 3-{[6-Methyl-2-(1-oxido-2,3-dihydro-1,4-benzothiazepin-4(5H)-yl)quinolin-4-yl]amino}propane-1,2-diol] | 0.272
6 | Cc1ccc2nc(N3CCS(=O)(=O)c4ccccc4C3C)cc(NCC(O)CO)c2c1 (stereo not drawn) [Example 32-5, 3-{[6-Methyl-2-(5-methyl-1,1-dioxido-2,3-dihydro-1,4-benzothiazepin-4(5H)-yl)quinolin-4-yl]amino}propane-1,2-diol] | 2.58
7 | Cc1ccc2nc(N3CCS(=O)(=O)c4ccc(N5CCOCC5)cc4C3)cc(NCC3(N)COC3)c2c1 [Example 33-1, N-[(3-Aminooxetan-3-yl)methyl]-2-(7-morpholin-4-yl-1,1-dioxido-2,3-dihydro-1,4-benzothiazepin-4(5H)-yl)-6-methylquinolin-4-amine] | 0.044
8 | Cc1ccc2nc(N3CCS(=O)(=O)c4ccc(N5CCN(C(C)C)CC5)cc4C3)cc(NCC3(N)COC3)c2c1 [Example 33-2, N-[(3-Aminooxetan-3-yl)methyl]-2-{1,1-dioxido-7-[4-(propan-2-yl)piperazin-1-yl]-2,3-dihydro-1,4-benzothiazepin-4(5H)-yl}-6-methylquinolin-4-amine] | 0.627
9 | Nc1cc(N2CCS(=O)(=O)c3cc(OCCCO)ccc3C2)nc2ccccc12 [Example 34, 3-{[4-(4-Aminoquinolin-2-yl)-1,1-dioxido-2,3,4,5-tetrahydro-1,4-benzothiazepin-8-yl]oxy}propan-1-ol] | 2.09
10 | Cc1ccc2nc(N3CCS(=O)(=O)c4cc(Oc5ccccc5)ccc4C3)cc(NCC3(N)COC3)c2c1 [Example 35, N-[(3-Aminooxetan-3-yl)methyl]-2-(1,1-dioxido-8-phenoxy-2,3-dihydro-1,4-benzothiazepin-4(5H)-yl)-6-methylquinolin-4-amine] | 2.79
11 | Cc1ccc2nc(N3CCS(=O)(=O)c4ccccc4C3)cc(NCCC(N)=O)c2c1 [Example 36-1, N^˜3^˜-[2-(1,1-Dioxido-2,3-dihydro-1,4-benzothiazepin-4(5H)-yl)-6-methylquinolin-4-yl]-beta-alaninamide] | 0.073
12 | Cc1ccc2nc(N3CCS(=O)(=O)c4ccccc4C3)cc(NC(C)CC(N)=O)c2c1 (stereo not drawn) [Example 36-2, 3-{[2-(1,1-Dioxido-2,3-dihydro-1,4-benzothiazepin-4(5H)-yl)-6-methylquinolin-4-yl]amino}butanamide] | 1.47
13 | Cc1ccc2nc(N3CCS(=O)(=O)c4ccccc4C3)cc(NCC(C)C(N)=O)c2c1 (stereo not drawn) [Example 36-3, 3-{[2-(1,1-Dioxido-2,3-dihydro-1,4-benzothiazepin-4(5H)-yl)-6-methylquinolin-4-yl]amino}-2-methylpropanamide] | 2.15
14 | Cc1ccc2nc(N3CCS(=O)(=O)c4ccccc4C3)cc(N[C@@H](C)C(N)=O)c2c1 [Example 36-4, N^˜2^˜-[2-(1,1-dioxido-2,3-dihydro-1,4-benzothiazepin-4(5H)-yl)-6-methylquinolin-4-yl]-L-alaninamide] | 0.138
15 | Cc1ccc2nc(N3CCS(=O)(=O)c4ccccc4C3)cc(NCC(N)=O)c2c1 [Example 36-5, N^˜2^˜-[2-(1,1-Dioxido-2,3-dihydro-1,4-benzothiazepin-4(5H)-yl)-6-methylquinolin-4-yl]glycinamide] | 0.026
16 | CNC(=O)CNc1cc(N2CCS(=O)(=O)c3ccccc3C2)nc2ccc(C)cc12 [Example 36-6, N^˜2^˜-[2-(1,1-Dioxido-2,3-dihydro-1,4-benzothiazepin-4(5H)-yl)-6-methylquinolin-4-yl]-N-methylglycinamide] | 0.264
17 | Cc1ccc2nc(N3CCS(=O)(=O)c4ccccc4C3)cc(NC[C@H](N)CO)c2c1 [Example 37-1, (2S)-2-Amino-3-{[2-(1,1-dioxido-2,3-dihydro-1,4-benzothiazepin-4(5H)-yl)-6-methylquinolin-4-yl]amino}propan-1-ol] | 0.005
18 | Cc1ccc2nc(N3CCS(=O)(=O)c4ccccc4C3)cc(NC[C@@H](N)CO)c2c1 [Example 37-2, (2R)-2-Amino-3-{[2-(1,1-dioxido-2,3-dihydro-1,4-benzothiazepin-4(5H)-yl)-6-methylquinolin-4-yl]amino}propan-1-ol] | 0.043
19 | Cc1ccc2nc(N3CCS(=O)(=O)c4ccccc4C3)cc(N)c2c1 [Example 39, 2-(1,1-Dioxido-2,3-dihydro-1,4-benzothiazepin-4(5H)-yl)-6-methylquinolin-4-amine] | 0.092
20 | COC(C)(C)C(=O)Nc1cc(N2CCS(=O)(=O)c3ccccc3C2)nc2ccc(C)cc12 [Example 41, N-[2-(1,1-Dioxido-2,3-dihydro-1,4-benzothiazepin-4(5H)-yl)-6-methylquinolin-4-yl]-2-methoxy-2-methylpropanamide] | 2.63
21 | CCNC1(CNc2cc(N3CCS(=O)(=O)c4ccccc4C3)nc3ccc(C)cc23)COC1 [Example 43, 2-(1,1-Dioxido-2,3-dihydro-1,4-benzothiazepin-4(5H)-yl)-N-{[3-(ethylamino)oxetan-3-yl]methyl}-6-methylquinolin-4-amine] | 0.017

More lines, now with the values ahead:

Row | EC50 [µM] | SMILES
22 | 0.01 | Cc1ccc2nc(N3CCS(=O)(=O)c4ccccc4C3)cc(NCC3CN=C(N)O3)c2c1 (stereo not drawn) [Example 38-1, N-[(2-Amino-4,5-dihydro-1,3-oxazol-5-yl)methyl]-2-(1,1-dioxido-2,3-dihydro-1,4-benzothiazepin-4(5H)-yl)-6-methylquinolin-4-amine]
23 | 0.302 | Cc1ccc2nc(N3CCS(=O)(=O)c4ccccc4C3)cc(NCC3(C)CN=C(N)O3)c2c1 (stereo not drawn) [Example 38-2, N-[(2-Amino-5-methyl-4,5-dihydro-1,3-oxazol-5-yl)methyl]-2-(1,1-dioxido-2,3-dihydro-1,4-benzothiazepin-4(5H)-yl)-6-methylquinolin-4-amine]
24 | 0.074 | Cc1ccc2nc(N3CCS(=O)(=O)c4ccccc4C3)cc(NC[C@@H]3COC(N)=N3)c2c1 [Example 38-3, N-{[(4R)-2-Amino-4,5-dihydro-1,3-oxazol-4-yl]methyl}-2-(1,1-dioxido-2,3-dihydro-1,4-benzothiazepin-4(5H)-yl)-6-methylquinolin-4-amine]
25 | 0.064 | Cc1ccc2nc(N3CCS(=O)(=O)c4ccccc4C3)cc(NC[C@H]3COC(N)=N3)c2c1 [Example 38-4, N-{[(4S)-2-Amino-4,5-dihydro-1,3-oxazol-4-yl]methyl}-2-(1,1-dioxido-2,3-dihydro-1,4-benzothiazepin-4(5 H)-yl)-6-methylquinolin-4-amine]
26 | 0.039 | Cc1ccc2nc(N3CCS(=O)(=O)c4ccccc4C3)cc(NC(=O)CN)c2c1 [Example 40-1, N-[2-(1,1-Dioxido-2,3-dihydro-1,4-benzothiazepin-4(5H)-yl)-6-methylquinolin-4-yl]glycinamide]
27 | 4.66 | Cc1ccc2nc(N3CCS(=O)(=O)c4ccccc4C3)cc(NC(=O)C(C)(C)N)c2c1 [Example 40-2, N-[2-(1,1-Dioxido-2,3-dihydro-1,4-benzothiazepin-4(5H)-yl)-6-methylquinolin-4-yl]-2-methylalaninamide]
28 | 0.917 | Cc1ccc2nc(N3CCS(=O)(=O)c4ccccc4C3)cc(NC(=O)[C@H](C)N)c2c1 [Example 40-3, N-[2-(1,1-Dioxido-2,3-dihydro-1,4-benzothiazepin-4(5H)-yl)-6-methylquinolin-4-yl]alaninamide]
29 | 2.65 | CCC(N)C(=O)Nc1cc(N2CCS(=O)(=O)c3ccccc3C2)nc2ccc(C)cc12 (stereo not drawn) [Example 40-4, 2-Amino-N-[2-(1,1-dioxido-2,3-dihydro-1,4-benzothiazepin-4(5H)-yl)-6-methylquinolin-4-yl]butanamide]
30 | 8.95 | Cc1ccc2nc(N3CCS(=O)(=O)c4ccccc4C3)cc(NCCC(N)C(F)(F)F)c2c1 (stereo not drawn) [Example 42-1, N^˜1^˜-[2-(1,1-Dioxido-2,3-dihydro-1,4-benzothiazepin-4(5H)-yl)-6-methylquinolin-4-yl]-4,4,4-trifluorobutane-1,3-diamine]
31 | 0.037 | Cc1ccc2nc(N3CCS(=O)(=O)c4ccccc4C3)cc(NC(=O)CCN)c2c1 [Example 42-2, N-[2-(1,1-Dioxido-2,3-dihydro-1,4-benzothiazepin-4(5H)-yl)-6-methylquinolin-4-yl]-beta-alaninamide]
32 | 0.084 | Cc1ccc2nc(N3CCS(=O)(=O)c4ccccc4C3)cc(NC3CCN(C4COC4)C3)c2c1 (stereo not drawn) [Example 44-1, 2-(1,1-Dioxido-2,3-dihydro-1,4-benzothiazepin-4(5H)-yl)-6-methyl-N-[1-(oxetan-3-yl)pyrrolidin-3-yl]quinolin-4-amine]
33 | 1.55 | CCN(CCNc1cc(N2CCS(=O)(=O)c3ccccc3C2)nc2ccc(C)cc12)C1COC1 [Example 44-2, N′-[2-(1,1-Dioxido-2,3-dihydro-1,4-benzothiazepin-4(5H)-yl)-6-methylquinolin-4-yl]-N-ethyl-N-(oxetan-3-yl)ethane-1,2-diamine]
